Read-outs that look alike come from different tables or passages of the source. Where a SMILES comes first, the peptide text is derived from it.
Key:
fibrinogen fragment D = target: T1, fibrinogen fragment D (Homo sapiens, UniProt P02675+P02679); assay: SPR binding kinetics of knob 'A' peptides on immobilized fibrinogen fragment D; conditions: for kon / koff: Langmuir 1:1 model; for kon: read-out: ka, association rate; for koff: read-out: kd, dissociation rate; for Kd: heterogeneous ligand model, KD = kd/ka
T1 construct: Fibrinogen fragment D, comprising the C-terminal polymerization pockets of fibrinogen (i.e. D-domain) without the N-terminal knobs; purchased Enzyme Research Laboratories FIB3
T1 sequence (P02679 89-432 limits assumed): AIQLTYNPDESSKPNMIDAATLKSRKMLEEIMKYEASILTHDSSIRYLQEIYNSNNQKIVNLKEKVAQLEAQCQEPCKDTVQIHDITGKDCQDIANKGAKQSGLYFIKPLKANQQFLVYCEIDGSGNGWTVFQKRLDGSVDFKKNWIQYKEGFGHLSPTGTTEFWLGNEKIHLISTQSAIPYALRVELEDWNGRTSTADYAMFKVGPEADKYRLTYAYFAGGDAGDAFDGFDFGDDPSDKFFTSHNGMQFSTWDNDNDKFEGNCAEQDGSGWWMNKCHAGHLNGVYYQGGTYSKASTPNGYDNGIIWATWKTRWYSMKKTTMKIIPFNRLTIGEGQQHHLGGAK
T1 sequence (P02675 164-491 limits assumed): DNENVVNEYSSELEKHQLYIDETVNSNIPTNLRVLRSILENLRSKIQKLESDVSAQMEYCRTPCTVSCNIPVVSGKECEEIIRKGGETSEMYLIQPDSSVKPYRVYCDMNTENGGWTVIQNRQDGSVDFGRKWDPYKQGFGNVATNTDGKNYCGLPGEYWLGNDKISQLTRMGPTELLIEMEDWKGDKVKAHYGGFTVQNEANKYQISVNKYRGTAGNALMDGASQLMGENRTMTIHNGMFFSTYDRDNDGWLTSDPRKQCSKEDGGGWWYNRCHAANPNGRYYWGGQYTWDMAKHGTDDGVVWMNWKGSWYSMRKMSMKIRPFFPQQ
T1 sequence (P02671 124-216 partner limits assumed): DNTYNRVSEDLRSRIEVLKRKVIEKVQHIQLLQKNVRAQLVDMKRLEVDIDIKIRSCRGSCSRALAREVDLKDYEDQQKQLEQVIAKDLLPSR
Description: Human fibrinogen (Enzyme Research Laboratories, South Bend, Ind.) at 2 mg/mL was digested with 0.1 U/mL human plasmin (ERL) in HEPES+CaCl2 buffer (150 mM NaCl, 5 mM CaCl2, 25 mM HEPES; pH 7.4) overnight at room temperature. Fragment D was isolated as previously described, with slight modifications (Kostelansky M S, et al. Biochemistry. 2002; 41(40):12124-12132). Briefly, the plasmin-digested fibrinogen and GPRPAA (SEQ ID NO:10) beads were incubated for 30 min, with occasional agitation. The unbound proteins and protein fragments were removed with excessive washing with HEPES+CaCl2 buffer. Fragment D was eluted with 1M sodium bromide and 50 mM sodium acetate (pH 5.3). Eluted samples were pooled together and exchanged back into HEPES+CaCl2 buffer using a centrifugal filter (MWCO 10,000). Fragment D was verified by SDS-PAGE and stored at −80° C. until use.
The Biacore 2000 (Biacore Lifesciences, GE Healthcare, Pittsburgh, Pa.) was used investigate kinetic binding constants (ka and kd) of knob ‘A’ peptide variants for fibrinogen fragment D. Briefly, fragment D was covalently immobilized to gold-coated SPR sensor chips via self-assembled monolayer (SAM) surface chemistry in order to generate a non-fouling surface with a controlled density of reactive carboxylic acid groups. Mixed SAMs were generated on gold-coated chips as described previously (Petrie T A, et al. Biomaterials. 2006; 27(31):5459-5470) by incubating with a 1 mM mixture of tri(ethylene glycol)-terminated alkanethiols (HS-(CH2)11—(OCH2CH2)3—OH; EG3; ProChimia, Poland) and carboxylic acid-terminated alkanethiols (HS-(CH2)11—(OCH2CH2)6—OCH2COOH; EG6-COOH) for 4 hrs. Upon loading the sensor chip into the Biacore 2000, the EG6-COOH in all four flow cells was activated by flowing 200 mM 1-ethyl-3-(3-dimethylaminopropyl) carbodiimide (EDC; Sigma Aldrich, St. Louis, Mo.) and 50 mM N-hydroxysuccinimide (NHS; Sigma Aldrich) (5 μL/min for 10 min). Immediately following activation, fragment D was immobilized in three flow cells (5 μL/min for 10 min) to achieve 1800-2000 resonance units (RU; 1RU˜1 pg/mm^2). Unreacted NHS groups were quenched in all four flow cells (three sample cells and one reference cell) with 20 mM ethanolamine ([…] for 10 min). Upon stabilization of the baseline signal, kinetic binding experiments were run in duplicate with the peptide variants as the flow analytes. Five varying concentrations for each peptide (0.94 μM to 150 μM) were flowed at 25 μL/min for 4 min immediately followed by a 10 min dissociation phase. Between each run, the surface was regenerated with 1M sodium bromide and 50 mM sodium acetate (pH 6.0). SPR experiments were performed three times with varying peptide injection order to rule out binding trends associated with injection sequence. Peptide solutions were incubated with tris(2-carboxyethyl)phosphine (TCEP) immobilized on agarose beads (Thermo Fisher Scientific, Inc; Rockland, Ill.) to ensure reduction of any disulfide bonds between C-terminal cysteines.
SPR sensorgrams were analyzed with the aid of Scrubber 2 and ClampXP software (Center for Biomolecular Interactions Analysis, University of Utah) (Morton T A, et al. Methods Enzymol. 1998; 295:268-294; Morton T A, et al. Anal Biochem. 1995; 227(1):176-185; Myszka D G, et al. Trends Biochem Sci. 1998; 23(4):149-150). Prior to analysis, all sensorgrams were inspected for abnormalities (i.e. baseline drift, air spikes, or irregular deviations) and excluded. Reference cell responses were subtracted from corresponding active response curves. Double-referenced curves were acquired by further subtracting the reference cell blank buffer injections from each reference-subtracted response curve (Myszka D G. Mol. Recognit. 1999; 12(5):279-284). All double-referenced curves were normalized by the molecular weight of each peptide and multiplied by 1000 to account for minor variations in response due to molecular weight. The resulting curves were then analyzed and fitted to the kinetic models. […]

fibrinogen = target: T2, fibrinogen (Homo sapiens, UniProt P02675+P02679); assay: ELISA specificity assay: soluble Gxxx tetrapeptides competing with immobilized GPRP-FnIII9-10-C; assay type: binding; conditions: tetrapeptide in 10^2- to 10^4-fold molar excess; one-hour pre-incubation
T2 sequence (P02679 27-437 isoform P02679-2 limits assumed): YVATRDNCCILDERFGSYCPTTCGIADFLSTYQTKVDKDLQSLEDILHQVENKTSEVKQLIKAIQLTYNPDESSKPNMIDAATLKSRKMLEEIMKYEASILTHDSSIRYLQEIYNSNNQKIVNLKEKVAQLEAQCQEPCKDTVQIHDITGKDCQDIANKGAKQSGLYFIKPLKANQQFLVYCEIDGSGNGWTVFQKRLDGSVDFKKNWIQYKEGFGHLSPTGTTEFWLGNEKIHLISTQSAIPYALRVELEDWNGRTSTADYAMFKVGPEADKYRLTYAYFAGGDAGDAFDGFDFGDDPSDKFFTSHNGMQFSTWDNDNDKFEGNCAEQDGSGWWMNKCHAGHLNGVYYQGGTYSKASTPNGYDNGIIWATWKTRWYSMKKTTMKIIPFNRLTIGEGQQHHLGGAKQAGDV
T2 sequence (P02675 31-491): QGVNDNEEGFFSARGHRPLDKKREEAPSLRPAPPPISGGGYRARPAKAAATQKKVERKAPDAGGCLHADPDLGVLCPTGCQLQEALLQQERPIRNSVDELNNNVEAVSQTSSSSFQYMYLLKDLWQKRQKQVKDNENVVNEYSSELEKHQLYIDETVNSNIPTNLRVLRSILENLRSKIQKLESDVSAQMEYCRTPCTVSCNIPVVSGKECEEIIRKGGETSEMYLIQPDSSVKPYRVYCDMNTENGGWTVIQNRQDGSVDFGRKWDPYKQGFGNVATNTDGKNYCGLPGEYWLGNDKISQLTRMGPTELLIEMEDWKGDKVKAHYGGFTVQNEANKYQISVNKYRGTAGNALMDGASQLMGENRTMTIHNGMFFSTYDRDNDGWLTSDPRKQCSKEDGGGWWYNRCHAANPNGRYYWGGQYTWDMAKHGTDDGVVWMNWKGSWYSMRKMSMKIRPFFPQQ
T2 sequence (P02671 20-629 partner limits assumed): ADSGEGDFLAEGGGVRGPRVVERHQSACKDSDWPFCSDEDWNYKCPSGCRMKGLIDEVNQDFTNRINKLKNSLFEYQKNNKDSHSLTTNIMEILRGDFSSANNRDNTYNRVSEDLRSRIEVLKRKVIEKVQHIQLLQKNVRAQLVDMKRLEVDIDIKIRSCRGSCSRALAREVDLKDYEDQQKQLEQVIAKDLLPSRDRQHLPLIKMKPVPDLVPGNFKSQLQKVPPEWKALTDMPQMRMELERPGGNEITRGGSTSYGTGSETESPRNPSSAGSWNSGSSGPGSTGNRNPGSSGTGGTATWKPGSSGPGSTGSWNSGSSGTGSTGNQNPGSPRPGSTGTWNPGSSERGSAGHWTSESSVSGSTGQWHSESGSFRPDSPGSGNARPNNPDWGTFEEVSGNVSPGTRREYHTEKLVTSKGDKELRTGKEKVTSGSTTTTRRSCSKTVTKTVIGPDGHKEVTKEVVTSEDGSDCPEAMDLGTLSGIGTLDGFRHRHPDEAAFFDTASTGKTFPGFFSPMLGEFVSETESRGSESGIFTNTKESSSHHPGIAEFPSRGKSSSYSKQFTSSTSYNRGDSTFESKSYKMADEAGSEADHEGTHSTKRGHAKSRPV
Description: A modified ELISA technique was used to establish the affinity of fibrinogen for the various Gxxx-FnIII9-10-C (SEQ ID NO:20) proteins covalently immobilized on maleimide-activated plates via their C-terminal cysteines. Sulfhydryl-containing proteins/peptides were added to pre-blocked maleimide-activated 96-well plates (Pierce, Thermo Scientific, Rockford, Ill.) at 10 μg/mL in conjugation buffer (CB) comprising 150 mM NaCl, 100 mM phosphate, 10 mM EDTA, pH 7.2, with attachment occurring via maleimide-sulfhydryl (thioether) linkages. TCEP (1 mM) was added to maintain sulfhydryl groups in the reduced form. Following, unreacted maleimide groups were quenched with 20 μg/mL cysteine in CB. Human fibrinogen (25 μg/mL) was incubated with the substrates and unbound protein removed by washing. Bound fibrinogen was detected using HRP-conjugated goat anti-fibrinogen antibody (MP Biomedicals #55239) and 1-Step™ Ultra TMB-ELISA (Pierce). The TMB reaction was quenched with 1 M H2SO4 before measuring the Abs450 nm using the SPECTRAMAX® M2 (Molecular Devices, Sunnyvale, Calif.). All intervening wash steps were conducted using washing buffer (WB) comprising 150 mM NaCl, 100 mM phosphate, 0.05% Tween-20, pH 7.2; all binding steps were conducted using binding buffer (BB) comprising PBS+1% BSA. For basic affinity assays, the concentration of the fusion proteins was varied. For specificity assays, varying concentrations of Gxxx (SEQ ID NO:20) tetrapeptides (Genscript, Piscataway, N.J.) were added to the fibrinogen solution during incubation with the covalently immobilized proteins.
The tetrapeptides GPRV (SEQ ID NO:2) and GHRP (SEQ ID NO:3) are also known to bind fibrinogen via knob:pocket interactions, albeit with reduced affinities (Laudano A P, et al. Biochemistry 1980, 19(5):1013-1019).

kon (fibrinogen fragment D)	koff (fibrinogen fragment D)	Kd (fibrinogen fragment D; site 1, read-out: KD1)	Kd (fibrinogen fragment D; site 2, read-out: KD2)	competition with immobilized GPRP-FnIII9-10-C for binding to fibrinogen (fibrinogen)	SPR binding response (in words) (fibrinogen fragment D)	Compound
12500 ± 260 M⁻¹ s⁻¹	0.00727 ± 8e-05 s⁻¹	3.73 µM	1.08 µM			C[C@H](NC(=O)[C@@H]1CCCN1C(=O)[C@H](Cc1ccccc1)NC(=O)[C@@H]1CCCN1C(=O)[C@H](CCCNC(=N)N)NC(=O)[C@@H]1CCCN1C(=O)CN)C(=O)N[C@@H](CS)C(=O)O [GPRPFPAC] (H-GPRPFPAC-OH)
				to a lesser extent as compared to GPRP		GPRV (listed as Homo sapiens)
1140 ± 30 M⁻¹ s⁻¹	0.0117 ± 0.00017 s⁻¹	4.53 µM	8.52 µM			C[C@H](NC(=O)[C@H](C)NC(=O)[C@@H]1CCCN1C(=O)[C@H](CCCNC(=N)N)NC(=O)[C@@H]1CCCN1C(=O)CN)C(=O)N[C@@H](CS)C(=O)O [GPRPAAC] (H-GPRPAAC-OH)
					minimal binding response	GPSPAAC (listed as Homo sapiens) [reference compound]
90 ± 1 M⁻¹ s⁻¹	0.01073 ± 4e-05 s⁻¹	48.5 µM	25 µM			CC(C)[C@H](NC(=O)[C@H](CCCNC(=N)N)NC(=O)[C@@H]1CCCN1C(=O)CN)C(=O)N[C@H](C(=O)N[C@@H](C)C(=O)N[C@@H](C)C(=O)N[C@@H](CS)C(=O)O)C(C)C [GPRVVAAC] (H-GPRVVAAC-OH)
				not a significant competitor		GHRP (listed as Homo sapiens)
280 ± 4 M⁻¹ s⁻¹	0.02343 ± 0.00023 s⁻¹	53.9 µM	15.7 µM			CC(C)[C@H](NC(=O)[C@H](CCCNC(=N)N)NC(=O)[C@@H]1CCCN1C(=O)CN)C(=O)N[C@H](C(=O)N[C@@H](CCC(=O)O)C(=O)N[C@@H](CCCNC(=N)N)C(=O)N[C@@H](CS)C(=O)O)C(C)C [GPRVVERC] (H-GPRVVERC-OH)
1290 ± 30 M⁻¹ s⁻¹	0.00992 ± 0.00013 s⁻¹	18.2 µM	2.93 µM			N=C(N)NCCC[C@H](NC(=O)[C@H](CCC(=O)O)NC(=O)[C@@H]1CCCN1C(=O)[C@@H]1CCCN1C(=O)[C@H](CCCNC(=N)N)NC(=O)[C@@H]1CCCN1C(=O)CN)C(=O)N[C@@H](CS)C(=O)O [GPRPPERC] (H-GPRPPERC-OH)
